How the values were obtained:
[1] = biological target: T1, 5-hydroxytryptamine receptor 1A (Homo sapiens, UniProt P08908); test: 5-HT1A Receptor Binding Test: 1. Experimental Materials:The isotopic ligand of 5-H1A receptor […] (purchased from PE Corporation), (+)5-hydroxytryptamine (purchased from Sigma Corporation), GF/B glassfiber filter (purchased from Whatman Corporation), fat-soluble scintillation fluid: PPO and POPOP (purchased from Shanghai No. 1 Reagent Factory), toluene (purchased from Sinopharm Chemical Reagent Co., Ltd), and Tris (imported and subpackaged).Cells: HEK-293 cells stably expressing 5-HT1A receptors as obtained by gene recombination are cultured for 3-5 days in cell culture medium DMEM supplemented with 10% serum. […] Total binding tube […] 20 μL D1 Binding Buffer 20 μL Cells 160 μL Non-specific tube […] 20 μL 5-HT(10−4) 20 μL Cells 160 μL Tube with the […] 20 μL compound to be tested The compound to be tested 20 μL Cells 160 μL The components are mixed to homogeneity, and then the above tubes are transferred to water bath at 30° C. (1 h), removed into ice bath immediately, and suction filtered on Harvest (with ice cold Tris eluate for 5 times).
T1 sequence (P08908 whole entry): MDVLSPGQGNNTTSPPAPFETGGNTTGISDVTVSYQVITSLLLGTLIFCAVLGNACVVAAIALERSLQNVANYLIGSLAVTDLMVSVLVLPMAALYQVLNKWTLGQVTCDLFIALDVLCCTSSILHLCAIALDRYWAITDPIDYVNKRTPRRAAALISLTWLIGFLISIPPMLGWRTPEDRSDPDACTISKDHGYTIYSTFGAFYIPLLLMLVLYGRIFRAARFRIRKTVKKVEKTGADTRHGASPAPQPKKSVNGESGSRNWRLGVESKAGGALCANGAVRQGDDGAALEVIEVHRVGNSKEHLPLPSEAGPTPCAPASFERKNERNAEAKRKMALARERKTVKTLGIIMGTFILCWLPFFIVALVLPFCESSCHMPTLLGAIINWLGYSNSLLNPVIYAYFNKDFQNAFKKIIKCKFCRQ

D(2) dopamine receptor = D(2) dopamine receptor (Homo sapiens, UniProt P14416); test: Receptor Binding Test: 1. Experimental Materials:(1) D2 receptor Cell Transfection:This experiment utilizes the plasmid vector containing the gene of D2 receptor protein for transfecting HEK293 cells by calcium phosphate transfection method.
Chain of D(2) dopamine receptor (P14416 whole entry): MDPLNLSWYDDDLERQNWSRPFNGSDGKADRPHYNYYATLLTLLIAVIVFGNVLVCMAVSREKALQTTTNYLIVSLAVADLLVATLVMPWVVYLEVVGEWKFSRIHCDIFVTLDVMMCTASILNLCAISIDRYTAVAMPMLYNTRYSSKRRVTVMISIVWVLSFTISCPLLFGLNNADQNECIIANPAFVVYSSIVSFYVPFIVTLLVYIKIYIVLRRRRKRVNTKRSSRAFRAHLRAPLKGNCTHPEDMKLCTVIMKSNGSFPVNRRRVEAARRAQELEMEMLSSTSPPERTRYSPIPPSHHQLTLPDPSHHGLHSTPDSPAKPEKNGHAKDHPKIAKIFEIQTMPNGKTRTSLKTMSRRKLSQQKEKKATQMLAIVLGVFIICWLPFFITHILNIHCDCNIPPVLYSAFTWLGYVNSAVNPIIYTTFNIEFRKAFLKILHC

[2] = Dopamine D3 Receptor Binding Test: The experiment is carried out by the method according to Journal of Pharmacology and Experimental Therapeutics 2010, 333(1): 328. With [3H]methyl-spiperone (0.3 nM) as the ligand and (+)-butaclamol (10 LM) for determining non-specific binding, binding tests are carried out on human recombinant D3 receptor (expressed in CHO cells).; format: cell-based

Structure (SMILES) | Ki [1] [nM] | Ki (D(2) dopamine receptor) [nM] | Ki [2] [nM]
CCOC(=O)N[C@H]1CC[C@@H](CCN2CCN(c3nsc4ccccc34)CC2)CC1 | 0.97 | 1.97 | 0.46
CC(C)COC(=O)N[C@H]1CC[C@H](CCN2CCN(c3nsc4ccccc34)CC2)CC1 |  |  | 0.093
O=C(N[C@H]1CC[C@H](CCN2CCN(c3nsc4ccccc34)CC2)CC1)Oc1ccc([N+](=O)[O-])cc1 |  | 12.4 | 7.12
O=C(N[C@H]1CC[C@H](CCN2CCN(c3nsc4ccccc34)CC2)CC1)OCc1ccccc1 | 0.79 | 1.6 | 0.061
Cc1ccccc1OC(=O)N[C@H]1CC[C@H](CCN2CCN(c3nsc4ccccc34)CC2)CC1 |  |  | 8.49
COC(=O)N[C@H]1CC[C@@H](CCN2CCN(c3nsc4ccccc34)CC2)CC1 | 2.55 |  | 0.087
O=C(N[C@H]1CC[C@H](CCN2CCN(c3nsc4ccccc34)CC2)CC1)Oc1ccc(Cl)cc1 |  |  | 11.6
O=C(N[C@H]1CC[C@H](CCN2CCN(c3nsc4ccccc34)CC2)CC1)OC1CC1 | 3.95 | 3.26 | 1.81
O=C(N[C@H]1CC[C@H](CCN2CCN(c3nsc4ccccc34)CC2)CC1)Oc1ccccc1 |  |  | 0.74
O=C(N[C@H]1CC[C@@H](CCN2CCN(c3nsc4ccccc34)CC2)CC1)OCc1ccccc1 | 2.14 | 0.98 | 1.03
COc1cccc(OC(=O)N[C@H]2CC[C@H](CCN3CCN(c4nsc5ccccc45)CC3)CC2)c1 |  |  | 1.05
O=C(N[C@H]1CC[C@H](CCN2CCN(c3nsc4ccccc34)CC2)CC1)OC1CCCCC1 | 1.69 | 11.8 | 4.3
COC(=O)N[C@H]1CC[C@H](CCN2CCN(c3nsc4ccccc34)CC2)CC1 |  |  | 0.1
